Values joined by “and” are separate entries in the source; they are usually repeats but may differ in a detail not shown here. Equal entries are not always repeated. Inconclusive results and toxic doses are left out. No stated cut-off is given here; in the data, active means T/C of 150% or more; inactive means T/C below 125%.
Tested on: L1210 leukemia ip in BDF1 mice, survival T/C
Experiment: NCI In Vivo Anticancer Drug Screen. Data for tumor model L1210 Leukemia (intraperitoneal) in B6D2F1 (BDF1) mice
Conditions: endpoint: mean survival time, higher = longer survival
In short: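 Value reflects the ratio of survival in compound-treated mice to survival in vehicle-treated controls, with both groups carrying the same transplanted tumor.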

[1] = dose: 100.0 mg/kg/injection, schedule: Q04DX002 (ip), vehicle: saline with Tween-80
[2] = dose: 200.0 mg/kg/injection, schedule: Q04DX002 (ip), vehicle: saline with Tween-80
[3] = dose: 400.0 mg/kg/injection, schedule: Q04DX002 (ip), vehicle: saline with Tween-80
[4] = dose: 100.0 mg/kg/injection, schedule: Q04DX003 (ip), vehicle: Klucel (hydroxypropylcellulose) (HPC)
[5] = dose: 200.0 mg/kg/injection, schedule: Q04DX003 (ip), vehicle: Klucel (hydroxypropylcellulose) (HPC)
[6] = dose: 12.5 mg/kg/injection, schedule: Q04DX002 (ip), vehicle: other
[7] = dose: 25.0 mg/kg/injection, schedule: Q04DX002 (ip), vehicle: other
[8] = dose: 100.0 mg/kg/injection, schedule: Q01DX001 (ip), vehicle: saline
[9] = dose: 200.0 mg/kg/injection, schedule: Q01DX001 (ip), vehicle: saline
[10] = dose: 400.0 mg/kg/injection, schedule: Q01DX001 (ip), vehicle: saline
[11] = dose: 50.0 mg/kg/injection, schedule: Q01DX001 (ip), vehicle: saline

Measured: T/C

CC(C)CC(=O)CC(O)(C(F)(F)F)C(F)(F)F
inactive: dose: 50.0 mg/kg/injection, schedule: Q01DX009 (ip), vehicle: saline 101 % of control | dose: 50.0 mg/kg/injection, schedule: Q04DX003 (ip), vehicle: saline 94 % of control | dose: 100.0 mg/kg/injection, schedule: Q01DX009 (ip), vehicle: saline 104 % of control | dose: 100.0 mg/kg/injection, schedule: Q04DX003 (ip), vehicle: saline 92 % of control | dose: 200.0 mg/kg/injection, schedule: Q01DX009 (ip), vehicle: saline 104 % of control | dose: 200.0 mg/kg/injection, schedule: Q04DX003 (ip), vehicle: saline 100 % of control | dose: 400.0 mg/kg/injection, schedule: Q01DX009 (ip), vehicle: saline 93 % of control | dose: 400.0 mg/kg/injection, schedule: Q04DX003 (ip), vehicle: saline 103 % of control

C=C(NC(=O)CNC(=O)CN)C(=O)O
inactive: [1] 105 % of control | [2] 102 % of control | [3] 102 % of control

O=C(COc1ccccc1)Nc1cccc(C(=O)O)c1
inactive: [4] 104 % of control | [5] 93 % of control | dose: 400.0 mg/kg/injection, schedule: Q04DX003 (ip), vehicle: Klucel (hydroxypropylcellulose) (HPC) 109 % of control

O=C(CBr)c1cccc2c1ccc1ccccc12
inactive: dose: 1.56 mg/kg/injection, schedule: Q01DX009 (ip), vehicle: other 100 % of control | dose: 3.13 mg/kg/injection, schedule: Q01DX009 (ip), vehicle: other 95 % of control | dose: 6.25 mg/kg/injection, schedule: Q01DX009 (ip), vehicle: other 95 % of control and 98 % of control | dose: 12.5 mg/kg/injection, schedule: Q01DX005 (ip), vehicle: other 101 % of control | [6] 102 % of control | dose: 25.0 mg/kg/injection, schedule: Q01DX005 (ip), vehicle: other 104 % of control | [7] 91 % of control | dose: 50.0 mg/kg/injection, schedule: Q04DX002 (ip), vehicle: other 102 % of control

CCC1(C2=CCCCC2)C(=O)NC(=S)NC1=O
inactive: dose: 75.0 mg/kg/injection, schedule: Q01DX001 (ip), vehicle: saline 102 % of control | dose: 150.0 mg/kg/injection, schedule: Q01DX001 (ip), vehicle: saline 106 % of control | dose: 300.0 mg/kg/injection, schedule: Q01DX001 (ip), vehicle: saline 104 % of control

CCN(CC)Cc1nnnn1-c1ccccc1
inactive: [8] 103 % of control | [9] 97 % of control | [10] 106 % of control

CCCCCCCCCCCCNCCCCCCCCCCCC
inactive: dose: 3.12 mg/kg/injection, schedule: Q01DX009 (ip), vehicle: saline 102 % of control | dose: 6.25 mg/kg/injection, schedule: Q01DX009 (ip), vehicle: saline 97 % of control | dose: 6.25 mg/kg/injection, schedule: Q04DX003 (ip), vehicle: acetone 100 % of control | dose: 12.5 mg/kg/injection, schedule: Q01DX001 (ip), vehicle: saline 93 % of control | dose: 12.5 mg/kg/injection, schedule: Q01DX009 (ip), vehicle: saline 102 % of control | dose: 12.5 mg/kg/injection, schedule: Q04DX003 (ip), vehicle: acetone 96 % of control | dose: 25.0 mg/kg/injection, schedule: Q01DX001 (ip), vehicle: saline 93 % of control | dose: 100.0 mg/kg/injection, schedule: Q01DX009 (ip), vehicle: other 105 % of control | dose: 200.0 mg/kg/injection, schedule: Q01DX009 (ip), vehicle: other 105 % of control | dose: 400.0 mg/kg/injection, schedule: Q01DX009 (ip), vehicle: other 93 % of control

NC(CSS(=O)(=O)O)=NCCSc1ccc(Cl)cc1
inactive: dose: 6.25 mg/kg/injection, schedule: Q01DX009 (ip), vehicle: Klucel (hydroxypropylcellulose) (HPC) 95 % of control | dose: 12.5 mg/kg/injection, schedule: Q01DX009 (ip), vehicle: Klucel (hydroxypropylcellulose) (HPC) 104 % of control | dose: 12.5 mg/kg/injection, schedule: Q04DX002 (ip), vehicle: Klucel (hydroxypropylcellulose) (HPC) 100 % of control | dose: 25.0 mg/kg/injection, schedule: Q01DX009 (ip), vehicle: Klucel (hydroxypropylcellulose) (HPC) 107 % of control | dose: 25.0 mg/kg/injection, schedule: Q04DX002 (ip), vehicle: Klucel (hydroxypropylcellulose) (HPC) 100 % of control

COc1cc([N+](=O)[O-])ccc1NC(=O)Nc1c(C)n(C)n(-c2ccccc2)c1=O
inactive: dose: 100.0 mg/kg/injection, schedule: Q01DX009 (ip), vehicle: Klucel (hydroxypropylcellulose) (HPC) 97 % of control | dose: 200.0 mg/kg/injection, schedule: Q01DX009 (ip), vehicle: Klucel (hydroxypropylcellulose) (HPC) 93 % of control | dose: 400.0 mg/kg/injection, schedule: Q01DX009 (ip), vehicle: Klucel (hydroxypropylcellulose) (HPC) 93 % of control

c1ccc2c(c1)Oc1ccccc1[Te]2
inactive: [1] 100 % of control | [2] 103 % of control | [3] 88 % of control

O=Cc1ccc([N+](=O)[O-])o1
inactive: dose: 10.0 mg/kg/injection, schedule: Q01DX001 (ip), vehicle: saline 94 % of control | [6] 102 % of control | dose: 20.0 mg/kg/injection, schedule: Q01DX001 (ip), vehicle: saline 100 % of control | [7] 97 % of control | dose: 40.0 mg/kg/injection, schedule: Q01DX001 (ip), vehicle: saline 94 % of control

CC1(C)CC(=O)N/C1=C\C1NC(=O)CC1(C)C (stereo not given)
inactive: dose: 100.0 mg/kg/injection, schedule: Q01DX009 (ip), vehicle: saline with Tween-80 96 % of control | dose: 200.0 mg/kg/injection, schedule: Q01DX009 (ip), vehicle: saline with Tween-80 104 % of control | dose: 400.0 mg/kg/injection, schedule: Q01DX009 (ip), vehicle: saline with Tween-80 102 % of control

O=C(Nc1ncc([N+](=O)[O-])s1)C(F)(F)F
inactive: [11] 97 % of control | [8] 92 % of control | [9] 90 % of control | [10] 105 % of control

C=CC(=O)NCNC(=O)C=C
inactive: dose: 50.0 mg/kg/injection, schedule: Q04DX003 (ip), vehicle: carboxymethylcellulose (CMC) 100 % of control | [8] 97 % of control | dose: 100.0 mg/kg/injection, schedule: Q04DX003 (ip), vehicle: carboxymethylcellulose (CMC) 110 % of control | [9] 101 % of control | [10] 113 % of control

COC1OCN(C)CC1(C)C (stereo not given)
inactive: dose: 75.0 mg/kg/injection, schedule: Q01DX009 (ip), vehicle: saline 87 % of control | [4] 105 % of control | dose: 150.0 mg/kg/injection, schedule: Q01DX009 (ip), vehicle: saline 95 % of control | [5] 102 % of control | dose: 300.0 mg/kg/injection, schedule: Q01DX009 (ip), vehicle: saline 99 % of control

CC/C(=N/N=C(N)N)c1ccc(F)cc1
inactive: dose: 15.0 mg/kg/injection, schedule: Q01DX Z (oral), vehicle: carboxymethylcellulose (CMC) 104 % of control | dose: 30.0 mg/kg/injection, schedule: Q01DX Z (oral), vehicle: carboxymethylcellulose (CMC) 101 % of control | dose: 60.0 mg/kg/injection, schedule: Q01DX Z (oral), vehicle: carboxymethylcellulose (CMC) 98 % of control

C(=N\N=C\c1ccco1)/c1ccco1
inactive: dose: 100.0 mg/kg/injection, schedule: Q01DX001 (ip), vehicle: saline with Tween-80 98 % of control and 103 % of control | dose: 200.0 mg/kg/injection, schedule: Q01DX001 (ip), vehicle: saline with Tween-80 98 % of control

O=C1NC(=O)C(c2cccc(O)c2)N1 (stereo not given)
inactive: [11] 100 % of control | [8] 100 % of control | [9] 100 % of control | [10] 100 % of control
